Several values for one entry are separate records, joined by “and”; a condition that tells them apart may be missing. Equal values may be shown once. Read-outs that look alike come from different tables or passages of the source.
Tests used:
[1] = target: T1, UGT1A1 (Homo sapiens, UniProt P22309); assay: SN-38 glucuronidation (SN-38G formation) by human recombinant UGT1A1, with and without HDACi; format: in vitro ADME; conditions: for decrease of CLint: p < 0.05
T1 sequence (P22309 26-533): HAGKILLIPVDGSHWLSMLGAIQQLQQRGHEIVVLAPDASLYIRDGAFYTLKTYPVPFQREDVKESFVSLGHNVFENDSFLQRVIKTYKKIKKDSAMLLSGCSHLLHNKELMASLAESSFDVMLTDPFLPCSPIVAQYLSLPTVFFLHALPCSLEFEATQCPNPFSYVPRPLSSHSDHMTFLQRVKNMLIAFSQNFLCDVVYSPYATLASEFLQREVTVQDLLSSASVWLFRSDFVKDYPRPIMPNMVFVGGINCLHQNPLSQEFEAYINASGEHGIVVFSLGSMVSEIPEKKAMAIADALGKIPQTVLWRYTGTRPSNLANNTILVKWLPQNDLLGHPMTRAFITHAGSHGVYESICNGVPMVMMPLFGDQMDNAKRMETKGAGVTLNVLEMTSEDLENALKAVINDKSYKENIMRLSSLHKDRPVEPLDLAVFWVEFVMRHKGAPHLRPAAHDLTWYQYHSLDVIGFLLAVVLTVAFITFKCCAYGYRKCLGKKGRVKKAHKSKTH
Protocol: (§1) UGT1A1, UGT1A6 and UGT1A7 were chosen since these UGTs could be responsible for glucuronidating panobinostat.
(§2) All experiments were carried out in triplicate. […] Data were considered statistically significant when p < 0.05.

[2] = target: T2, UGT1A6 (Homo sapiens, UniProt P19224); assay: SN-38 glucuronidation by human recombinant UGT1A6, with and without panobinostat; format: in vitro ADME; conditions: UGT1A6, panobinostat 20 and 200 nmol/L; CLint increases insignificant (p > 0.05)
T2 construct: purchased BD Gentest
T2 sequence (P19224 27-532): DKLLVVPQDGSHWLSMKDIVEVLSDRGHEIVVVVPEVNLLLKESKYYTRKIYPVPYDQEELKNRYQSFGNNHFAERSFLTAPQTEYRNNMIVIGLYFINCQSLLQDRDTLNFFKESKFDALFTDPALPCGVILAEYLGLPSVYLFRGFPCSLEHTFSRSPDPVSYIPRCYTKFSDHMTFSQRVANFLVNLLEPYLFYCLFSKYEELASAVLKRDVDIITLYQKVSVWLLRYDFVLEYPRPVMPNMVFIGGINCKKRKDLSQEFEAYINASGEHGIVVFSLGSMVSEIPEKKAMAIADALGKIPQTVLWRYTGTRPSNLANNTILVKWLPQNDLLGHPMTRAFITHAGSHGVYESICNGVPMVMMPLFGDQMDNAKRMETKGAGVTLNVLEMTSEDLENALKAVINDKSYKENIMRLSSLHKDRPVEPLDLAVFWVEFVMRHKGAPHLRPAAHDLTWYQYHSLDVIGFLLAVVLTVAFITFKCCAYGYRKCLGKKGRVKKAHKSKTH
Protocol: as §1, §2

[3] = target: T3, UGT1A7 (Homo sapiens, UniProt Q9HAW7); assay: SN-38 glucuronidation by human recombinant UGT1A7, with and without panobinostat; format: in vitro ADME; conditions: UGT1A7, panobinostat 20 and 200 nmol/L; CLint increases insignificant (p > 0.05)
T3 construct: purchased BD Gentest
T3 sequence (Q9HAW7 26-530): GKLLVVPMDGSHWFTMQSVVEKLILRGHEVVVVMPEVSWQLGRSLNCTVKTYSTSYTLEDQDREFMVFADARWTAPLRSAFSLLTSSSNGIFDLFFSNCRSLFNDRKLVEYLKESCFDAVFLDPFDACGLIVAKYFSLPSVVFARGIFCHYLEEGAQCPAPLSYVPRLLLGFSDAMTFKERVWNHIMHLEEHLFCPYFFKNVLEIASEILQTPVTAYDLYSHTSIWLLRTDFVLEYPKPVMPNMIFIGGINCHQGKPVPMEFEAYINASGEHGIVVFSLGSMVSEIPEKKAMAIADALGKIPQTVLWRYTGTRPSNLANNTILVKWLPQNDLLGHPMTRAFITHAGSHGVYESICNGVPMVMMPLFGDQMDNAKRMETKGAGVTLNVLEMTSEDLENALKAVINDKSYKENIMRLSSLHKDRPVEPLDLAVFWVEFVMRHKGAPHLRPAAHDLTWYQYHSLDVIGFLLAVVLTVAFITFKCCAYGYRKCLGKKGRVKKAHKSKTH
Protocol: as §1, §2

[4] = cited from earlier work
[5] = test system: UGT1A1; assay: SN-38 glucuronidation by pooled HLMs, 50 donor pool (wild type, 6/6), with and without belinostat; format: in vitro ADME, human; conditions: human, pH 7.4; 50 donor pool HLMs (6/6), without belinostat; read-out: intrinsic clearance (CLint) of SN-38G formation
Protocol: as §2

[6] = test system: pooled HLMs (50 donor pool, wild-type 6/6 genotype); assay: as above; format: in vitro ADME, human; conditions: for decrease of CLint: 50 donor pool HLMs (6/6), p < 0.05
Protocol: as §2

[7] = target: T4, UGT1A9 (Homo sapiens, UniProt O60656); assay: SN-38 glucuronidation by human recombinant UGT1A9, with and without vorinostat; format: in vitro ADME
T4 construct: purchased BD Gentest
T4 sequence (O60656 26-530): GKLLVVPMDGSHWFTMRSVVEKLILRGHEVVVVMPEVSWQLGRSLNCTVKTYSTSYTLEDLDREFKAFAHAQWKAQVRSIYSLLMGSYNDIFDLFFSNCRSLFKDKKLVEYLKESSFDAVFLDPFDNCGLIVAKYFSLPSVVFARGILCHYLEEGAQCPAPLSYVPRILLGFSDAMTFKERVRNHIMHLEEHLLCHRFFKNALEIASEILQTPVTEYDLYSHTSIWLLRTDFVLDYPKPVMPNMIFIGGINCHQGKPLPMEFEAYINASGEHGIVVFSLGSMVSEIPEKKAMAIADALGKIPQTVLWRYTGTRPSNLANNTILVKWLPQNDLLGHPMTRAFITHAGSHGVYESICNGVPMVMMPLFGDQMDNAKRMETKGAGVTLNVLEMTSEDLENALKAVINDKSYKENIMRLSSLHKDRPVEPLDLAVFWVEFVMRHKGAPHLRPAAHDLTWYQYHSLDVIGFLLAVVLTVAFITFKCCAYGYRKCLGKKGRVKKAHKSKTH
Protocol: as §2

[8] = more potent than irinotecan; cited from earlier work
[9] = target: T1, UGT1A1; assay: in vitro; conditions: pooled liver microsomes, UGT1A1*1*28 (6/7) genotype, pH 7.4
Protocol: (§3) Ten microliter aliquots were injected into a high-performance liquid chromatograph assay system (Agilent 1100, Germany) with tandem mass spectrometric detection (API 4000 triple-quadrupole mass spectrometer; AB Sciex, Concord, Canada). Baseline separation of the analytes was achieved on the Alltima C18 (150 mm x 2.1 mm, 5 μm) column. The mobile phase A and B consisted of 100% acetonitrile and 0.1% formic acid, respectively.
(§4) After pre-incubation, the reaction was started with the addition of UGT1A1 or pooled HLMs (0.5 mg/mL). Reaction mixtures were incubated at 37°C for 30 minutes.
(§5) All experiments were carried out in triplicate. SN-38G formation velocity (ν) was calculated as Cm, 30 min/incubation time/microsomal protein concentration, where Cm, 30 min was the metabolite concentration after 30 min incubation. Plots of substrate concentration, S (X axis) versus ν (Y axis) were then constructed. Km and Vmax were calculated by the Michaelis-Menten Equation 1 below using GraphPad software v5.01 (GraphPad Software, Inc., San Diego, CA, USA). The kinetic parameter Vmax/Km, which is equivalent to intrinsic clearance (CLint) (Equation 2), was derived from the slope of the plot of the rate of product formation versus substrate concentration. Comparisons of CLint between two groups were performed by a paired t-test.

[10] = target: T1, UGT1A1; assay: in vitro; conditions: pooled liver microsomes, UGT1A1*28*28 (7/7) genotype, pH 7.4
Protocol: as §3, §4, §5

[11] = target: T5, pooled HLMs (UGT1A1*1*28 allelic variant, 6/7) (Homo sapiens, UniProt P22309)
T5 sequence (P22309 26-533): T1 sequence (P22309 26-533)
Protocol: as §3, §4, §5

[12] = target: T6, pooled HLMs (UGT1A1*28*28 allelic variant, 7/7) (Homo sapiens, UniProt P22309)
T6 sequence (P22309 26-533): T1 sequence (P22309 26-533)
Protocol: as §3, §4, §5

Cc1[nH]c2ccccc2c1CCNCc1ccc(/C=C/C(=O)NO)cc1 [panobinostat]
inhibitory effect on SN-38 glucuronidation ([1]; UGT1A1, panobinostat 20 and 200 nmol/L, CLint increases insignificant (p > 0.05)): not found to have any inhibitory effect | inhibitory effect on SN-38 glucuronidation [2]: not found to have any inhibitory effect | inhibitory effect on SN-38 glucuronidation [3]: not found to have any inhibitory effect | Cmax ([4]; intravenous administration): 0.2 µM | Cmax ([4]; oral administration): 0.02 µM

CCc1c2c(nc3ccc(O)cc13)-c1cc3c(c(=O)n1C2)COC(=O)[C@]3(O)CC [SN-38, 7-ethyl-10-hydroxycamptothecin]
microsomal CLint ([1]; human, pH 7.4, recombinant UGT1A1, without belinostat, read-out: intrinsic clearance (CLint) of SN-38G formation): 21.6 µL/min/mg | microsomal CLint [5]: 81.2 µL/min/mg | SN-38 glucuronidation activity (Vmax) ([6]; HLMs wild type 6/6, without belinostat): 41.13 pmol/min/mg | microsomal CLint ([7]; human, recombinant UGT1A9, read-out: CLint of SN-38G): 7.48 µL/min/mg | potency relative to irinotecan [8]: 100-1000 times | microsomal CLint [9]: 29.2 µL/min/mg | microsomal CLint [10]: 5.4 µL/min/mg

O=C(/C=C/c1cccc(S(=O)(=O)Nc2ccccc2)c1)NO [belinostat]
inhibition type ([1]; SN-38 glucuronidation by UGT1A1): non-competitive | interaction with irinotecan (SN-38 glucuronidation) ([1]; belinostat 10 μmol/L, simulating oral dosing): would not have significant interactions | decrease of CLint ([1]; recombinant UGT1A1, belinostat 100 μmol/L vs no belinostat): ~ 62% | decrease of CLint ([1]; recombinant UGT1A1, belinostat 200 μmol/L vs no belinostat): 81% | Vmax of SN-38 glucuronidation ([1]; recombinant UGT1A1, with belinostat (abstract: 100 and 200 µmol/L; lowest value, taken as 200 µmol/L)): 1.95 pmol/min/mg | decrease of CLint ([6]; belinostat 100 μmol/L vs none): 56% | decrease of CLint ([6]; belinostat 200 μmol/L vs none): 68% | SN-38 glucuronidation activity (Vmax) ([6]; HLMs wild type 6/6, with belinostat 200 µmol/L): 10.54 pmol/min/mg | inhibition type ([6]; SN-38 glucuronidation by HLMs (6/6)): non-competitive inhibition | inhibition type ([11]; SN-38 glucuronidation by HLMs (6/7)): non-competitive inhibition | decrease of SN-38G formation rate compared to wild type ([11]; UGT1A1*1*28 (6/7) HLMs vs wild type 6/6, both with belinostat 200 μmol/L): ~ 64% | decrease of CLint ([11]; UGT1A1*1*28 (6/7) HLMs, belinostat 200 μmol/L vs none, p < 0.05): 79% | rate of SN-38G formation (Vmax) ([11]; UGT1A1*1*28 (6/7) HLMs, with belinostat 200 μmol/L): 3.77 pmol/min/mg | inhibition type ([12]; SN-38 glucuronidation by HLMs (7/7)): non-competitive inhibition | decrease of SN-38G formation rate compared to wild type ([12]; UGT1A1*28*28 (7/7) HLMs vs wild type 6/6, both with belinostat 200 μmol/L): ~ 64% and ~ 68% | decrease of CLint ([12]; UGT1A1*28*28 (7/7) HLMs, belinostat 200 μmol/L vs none, p < 0.05): 75% | rate of SN-38G formation (Vmax) ([12]; UGT1A1*28*28 (7/7) HLMs, with belinostat 200 μmol/L): 3.30 pmol/min/mg | Cmax ([4]; high-dose intravenous administration): 200 µM | Cmax ([4]; oral administration): 10 µM

O=C(CCCCCCC(=O)Nc1ccccc1)NO [vorinostat]
inhibition of UGT1A9 (SN-38 glucuronidation) ([7]; vorinostat 2 µmol/L (therapeutic concentration)): no significant inhibition

Source: article PMC5522258 (Oncotarget, 2017)
